In PubChem BioAssay (NCI):
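Each compound was tested at five concentrations against cells in 96-well plates for 48 hours. At the TGI there is no net growth.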

Columns and labels:
Assay in all cases: inhibition of tumour cell growth, NCI panel, 48 h
786-0 renal = tested on: 786-0 renal
A498 renal = tested on: A498 renal
A549 NSCLC = tested on: A549 NSCLC
ACHN renal = tested on: ACHN renal
CAKI-1 renal = tested on: CAKI-1 renal
CCRF-CEM leukemia = tested on: CCRF-CEM leukemia
COLO 205 colon = tested on: COLO 205 colon
DLD-1 colon = tested on: DLD-1 colon
DMS 114 small cell lung = tested on: DMS 114 small cell lung
DMS 273 small cell lung = tested on: DMS 273 small cell lung
EKVX NSCLC = tested on: EKVX NSCLC
HCC-2998 colon = tested on: HCC-2998 colon
HCT-116 colon = tested on: HCT-116 colon
HCT-15 colon = tested on: HCT-15 colon
HL-60(TB) leukemia = tested on: HL-60(TB) leukemia
HOP-62 NSCLC = tested on: HOP-62 NSCLC
HOP-92 NSCLC = tested on: HOP-92 NSCLC
HT29 colon = tested on: HT29 colon
IGROV1 ovarian = tested on: IGROV1 ovarian
K-562 leukemia = tested on: K-562 leukemia
KM12 colon = tested on: KM12 colon
KM20L2 colon = tested on: KM20L2 colon
LOX IMVI melanoma = tested on: LOX IMVI melanoma
LXFL 529 NSCLC = tested on: LXFL 529 NSCLC
M14 melanoma = tested on: M14 melanoma
M19-MEL melanoma = tested on: M19-MEL melanoma
MALME-3M melanoma = tested on: MALME-3M melanoma
MOLT-4 leukemia = tested on: MOLT-4 leukemia
NCI-H23 lung = tested on: NCI-H23 lung
NCI-H460 lung = tested on: NCI-H460 lung
NCI-H522 lung = tested on: NCI-H522 lung
OVCAR-3 ovarian = tested on: OVCAR-3 ovarian
OVCAR-4 ovarian = tested on: OVCAR-4 ovarian
OVCAR-5 ovarian = tested on: OVCAR-5 ovarian
OVCAR-8 ovarian = tested on: OVCAR-8 ovarian
RPMI-8226 leukemia = tested on: RPMI-8226 leukemia
RXF 393 renal = tested on: RXF 393 renal
SF-268 CNS = tested on: SF-268 CNS
SF-539 CNS = tested on: SF-539 CNS
SK-MEL-2 melanoma = tested on: SK-MEL-2 melanoma
SK-MEL-28 melanoma = tested on: SK-MEL-28 melanoma
SK-MEL-5 melanoma = tested on: SK-MEL-5 melanoma
SK-OV-3 ovarian = tested on: SK-OV-3 ovarian
SN12C renal = tested on: SN12C renal
SNB-19 CNS = tested on: SNB-19 CNS
SNB-75 CNS = tested on: SNB-75 CNS
SNB-78 CNS = tested on: SNB-78 CNS
SW-620 colon = tested on: SW-620 colon
TK-10 renal = tested on: TK-10 renal
U251 CNS = tested on: U251 CNS
UACC-257 melanoma = tested on: UACC-257 melanoma
UACC-62 melanoma = tested on: UACC-62 melanoma
UO-31 renal = tested on: UO-31 renal
SR leukemia = tested on: SR leukemia
NCI-H226 lung = tested on: NCI-H226 lung
SF-295 CNS = tested on: SF-295 CNS
XF 498 CNS = tested on: XF 498 CNS
RXF-631 renal = tested on: RXF-631 renal

C[N+](C)(C)CC(=O)N/N=C(\C(=O)Nc1ccc(Cl)cc1)C1C(=O)N(c2ccccc2)N=C1N (centres undefined)
TGI (786-0 renal): > 100 µM
TGI (A498 renal): > 100 µM
TGI (A549 NSCLC): > 100 µM
TGI (ACHN renal): > 100 µM
TGI (CAKI-1 renal): > 100 µM
TGI (CCRF-CEM leukemia): > 100 µM
TGI (COLO 205 colon): > 100 µM
TGI (DLD-1 colon): > 100 µM
TGI (DMS 114 small cell lung): > 100 µM
TGI (DMS 273 small cell lung): > 100 µM
TGI (EKVX NSCLC): > 100 µM
TGI (HCC-2998 colon): > 100 µM
TGI (HCT-116 colon): > 100 µM
TGI (HCT-15 colon): > 100 µM
TGI (HL-60(TB) leukemia): > 100 µM
TGI (HOP-62 NSCLC): > 100 µM
TGI (HOP-92 NSCLC): > 100 µM
TGI (HT29 colon): > 100 µM
TGI (IGROV1 ovarian): > 100 µM
TGI (K-562 leukemia): > 100 µM
TGI (KM12 colon): > 100 µM
TGI (KM20L2 colon): > 100 µM
TGI (LOX IMVI melanoma): > 100 µM
TGI (LXFL 529 NSCLC): > 100 µM
TGI (M14 melanoma): > 100 µM
TGI (M19-MEL melanoma): > 100 µM
TGI (MALME-3M melanoma): > 100 µM
TGI (MOLT-4 leukemia): > 100 µM
TGI (NCI-H23 lung): > 100 µM
TGI (NCI-H460 lung): > 100 µM
TGI (NCI-H522 lung): > 100 µM
TGI (OVCAR-3 ovarian): > 100 µM
TGI (OVCAR-4 ovarian): > 100 µM
TGI (OVCAR-5 ovarian): > 100 µM
TGI (OVCAR-8 ovarian): > 100 µM
TGI (RPMI-8226 leukemia): > 100 µM
TGI (RXF 393 renal): > 100 µM
TGI (SF-268 CNS): > 100 µM
TGI (SF-539 CNS): > 100 µM
TGI (SK-MEL-2 melanoma): > 100 µM
TGI (SK-MEL-28 melanoma): > 100 µM
TGI (SK-MEL-5 melanoma): > 100 µM
TGI (SK-OV-3 ovarian): > 100 µM
TGI (SN12C renal): > 100 µM
TGI (SNB-19 CNS): > 100 µM
TGI (SNB-75 CNS): > 100 µM
TGI (SNB-78 CNS): > 100 µM
TGI (SW-620 colon): > 100 µM
TGI (TK-10 renal): > 100 µM
TGI (U251 CNS): > 100 µM
TGI (UACC-257 melanoma): > 100 µM
TGI (UACC-62 melanoma): > 100 µM
TGI (UO-31 renal): > 100 µM

CCCCCC(=O)OC[n+]1ccc2c(C)c3[nH]c4ccccc4c3c(C)c2c1
TGI (A498 renal): 2.67 µM
TGI (ACHN renal): 11.1 µM
TGI (CAKI-1 renal): 7.75 µM
TGI (HL-60(TB) leukemia): > 100 µM
TGI (HOP-62 NSCLC): 4.14 µM
TGI (HOP-92 NSCLC): > 100 µM
TGI (IGROV1 ovarian): 38.6 µM
TGI (KM20L2 colon): 2.75 µM
TGI (MOLT-4 leukemia): 8.26 µM
TGI (OVCAR-5 ovarian): 2.75 µM
TGI (RPMI-8226 leukemia): 1.78 µM
TGI (SK-MEL-2 melanoma): 29.8 µM
TGI (SK-OV-3 ovarian): 5.13 µM
TGI (SR leukemia): 12 µM
TGI (TK-10 renal): 15.4 µM
TGI (UO-31 renal): 13 µM

CC(C)OP(=O)(OC(C)C)c1ncn(-c2ccc([N+](=O)[O-])cc2)n1
TGI (A498 renal): > 100 µM
TGI (A549 NSCLC): > 100 µM
TGI (ACHN renal): > 100 µM
TGI (CAKI-1 renal): > 100 µM
TGI (CCRF-CEM leukemia): > 100 µM
TGI (COLO 205 colon): > 100 µM
TGI (DLD-1 colon): > 100 µM
TGI (DMS 114 small cell lung): > 100 µM
TGI (DMS 273 small cell lung): > 100 µM
TGI (EKVX NSCLC): > 100 µM
TGI (HCC-2998 colon): > 100 µM
TGI (HCT-116 colon): > 100 µM
TGI (HCT-15 colon): > 100 µM
TGI (HL-60(TB) leukemia): > 100 µM
TGI (HOP-62 NSCLC): > 100 µM
TGI (HOP-92 NSCLC): > 100 µM
TGI (HT29 colon): > 100 µM
TGI (IGROV1 ovarian): > 100 µM
TGI (K-562 leukemia): > 100 µM
TGI (KM12 colon): > 100 µM
TGI (KM20L2 colon): > 100 µM
TGI (LXFL 529 NSCLC): > 100 µM
TGI (M14 melanoma): > 100 µM
TGI (M19-MEL melanoma): > 100 µM
TGI (MALME-3M melanoma): > 100 µM
TGI (MOLT-4 leukemia): > 100 µM
TGI (NCI-H226 lung): > 100 µM
TGI (NCI-H23 lung): > 100 µM
TGI (NCI-H460 lung): > 100 µM
TGI (NCI-H522 lung): > 100 µM
TGI (OVCAR-3 ovarian): > 100 µM
TGI (OVCAR-4 ovarian): > 100 µM
TGI (OVCAR-5 ovarian): > 100 µM
TGI (OVCAR-8 ovarian): > 100 µM
TGI (RPMI-8226 leukemia): > 100 µM
TGI (RXF 393 renal): > 100 µM
TGI (SF-268 CNS): > 100 µM
TGI (SF-295 CNS): > 100 µM
TGI (SF-539 CNS): > 100 µM
TGI (SK-MEL-2 melanoma): > 100 µM
TGI (SK-MEL-28 melanoma): > 100 µM
TGI (SK-MEL-5 melanoma): > 100 µM
TGI (SK-OV-3 ovarian): > 100 µM
TGI (SN12C renal): > 100 µM
TGI (SNB-19 CNS): > 100 µM
TGI (SNB-75 CNS): > 100 µM
TGI (SR leukemia): > 100 µM
TGI (SW-620 colon): > 100 µM
TGI (TK-10 renal): > 100 µM
TGI (U251 CNS): > 100 µM
TGI (UACC-257 melanoma): > 100 µM
TGI (UACC-62 melanoma): > 100 µM
TGI (UO-31 renal): > 100 µM
TGI (XF 498 CNS): > 100 µM

CC(=O)NC1C(=O)CC(c2ccccc2)N(C)C1c1ccccc1 (centres undefined)
TGI (786-0 renal): > 100 µM
TGI (A498 renal): > 100 µM
TGI (A549 NSCLC): > 100 µM
TGI (ACHN renal): > 100 µM
TGI (CAKI-1 renal): > 100 µM
TGI (CCRF-CEM leukemia): > 100 µM
TGI (COLO 205 colon): > 100 µM
TGI (DLD-1 colon): > 100 µM
TGI (DMS 114 small cell lung): > 100 µM
TGI (DMS 273 small cell lung): > 100 µM
TGI (EKVX NSCLC): > 100 µM
TGI (HCC-2998 colon): > 100 µM
TGI (HCT-116 colon): > 100 µM
TGI (HCT-15 colon): > 100 µM
TGI (HL-60(TB) leukemia): > 100 µM
TGI (HOP-62 NSCLC): > 100 µM
TGI (HOP-92 NSCLC): > 100 µM
TGI (HT29 colon): > 100 µM
TGI (IGROV1 ovarian): > 100 µM
TGI (K-562 leukemia): > 100 µM
TGI (KM12 colon): > 100 µM
TGI (KM20L2 colon): > 100 µM
TGI (LOX IMVI melanoma): > 100 µM
TGI (LXFL 529 NSCLC): > 100 µM
TGI (M14 melanoma): > 100 µM
TGI (M19-MEL melanoma): > 100 µM
TGI (MALME-3M melanoma): > 100 µM
TGI (MOLT-4 leukemia): > 100 µM
TGI (NCI-H226 lung): > 100 µM
TGI (NCI-H23 lung): > 100 µM
TGI (NCI-H460 lung): > 100 µM
TGI (NCI-H522 lung): > 100 µM
TGI (OVCAR-3 ovarian): > 100 µM
TGI (OVCAR-4 ovarian): > 100 µM
TGI (OVCAR-5 ovarian): > 100 µM
TGI (OVCAR-8 ovarian): > 100 µM
TGI (RXF 393 renal): > 100 µM
TGI (RXF-631 renal): > 100 µM
TGI (SF-268 CNS): > 100 µM
TGI (SF-295 CNS): > 100 µM
TGI (SF-539 CNS): > 100 µM
TGI (SK-MEL-2 melanoma): > 100 µM
TGI (SK-MEL-28 melanoma): > 100 µM
TGI (SK-MEL-5 melanoma): > 100 µM
TGI (SK-OV-3 ovarian): > 100 µM
TGI (SN12C renal): > 100 µM
TGI (SNB-19 CNS): > 100 µM
TGI (SNB-75 CNS): > 100 µM
TGI (SNB-78 CNS): > 100 µM
TGI (SR leukemia): > 100 µM
TGI (SW-620 colon): > 100 µM
TGI (TK-10 renal): > 100 µM
TGI (U251 CNS): > 100 µM
TGI (UACC-257 melanoma): > 100 µM
TGI (UACC-62 melanoma): > 100 µM
TGI (UO-31 renal): > 100 µM
